# Literature values in paper PMC2751816, “Functional, Non-Clonal IgM^a-Restricted B Cell Receptor Interactions with the HIV-1 Envelope gp41 Membrane Proximal External Region” (PLoS ONE, 2009).
# Entries after “also recorded” stand apart in the source; their conditions may differ.
# Test system: MZ and B1 B cells
# Details: gp41 MPER-immunized BALB/c mice; ref L. Verkoczy and B. Haynes, unpublished results; cited from earlier work
# Excerpt: Classical B-cell sAgs, like the S. aureus protein A subunit (SpA), can bind to and activate large populations of B cells, may cause selective deletion of MZ and B1 B cell subsets, and bind to B cells based on VH family usage, [52]. Similarly, sAg interactions of HIV-1 gp120 with human B cells have been described (reviewed in [37] and [53]–[56]), resulting in a VH3-skewed repertoire in HIV-1 infected individuals (reviewed in [57] and [58]–[60]). […] In this context, one obvious question arising from our studies is what are the physiological consequences of weak and/or incomplete signaling by gp41 MPER (Fig. 8). One possibility is that incomplete activation of B cells by low affinity MPER binding could suppress the T-independent component of MPER Ab respon ...
sequence,measurement,value
"QQEKNEQELLELDKWASLWN [gp41 MPER tetramer, (residues 659–678 of the HIV-1 envelope)]",B cell subset deletion after immunization (in words),partial deletion of MZ and B1 B cells in gp41 MPER-immunized BALB/c mice; also recorded: reduced MZ B cell populations in gp41 MPER-immunized BALB/c mice
